Calls of active or inactive are those of the source. The rule behind the calls is not given here.
Legend:
[1] = molecular target: T1, Vitamin D3 receptor (Homo sapiens) (UniProt P11473); assay: Antagonist activity at recombinant human pFA-CMV fused VDR LBD transfected in HEK293T cells assessed as calcitrol-induced VDR activation at 1 uM incubated for 12 to 14 hrs by dual glo luciferase reporter gene assay; assay type: cell-based
T1 sequence (whole entry): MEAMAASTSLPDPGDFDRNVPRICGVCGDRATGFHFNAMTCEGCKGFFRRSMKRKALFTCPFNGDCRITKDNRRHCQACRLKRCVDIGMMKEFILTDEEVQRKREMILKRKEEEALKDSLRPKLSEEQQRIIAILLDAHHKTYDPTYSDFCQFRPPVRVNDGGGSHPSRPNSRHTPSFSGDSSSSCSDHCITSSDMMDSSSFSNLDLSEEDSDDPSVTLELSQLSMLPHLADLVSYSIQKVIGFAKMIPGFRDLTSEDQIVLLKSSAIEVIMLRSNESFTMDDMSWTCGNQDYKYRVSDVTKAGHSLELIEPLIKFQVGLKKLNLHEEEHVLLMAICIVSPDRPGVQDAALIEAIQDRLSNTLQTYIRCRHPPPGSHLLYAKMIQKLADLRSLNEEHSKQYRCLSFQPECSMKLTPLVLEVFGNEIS

[2] = molecular target: T2, Retinoic acid receptor RXR-alpha (Homo sapiens) (UniProt P19793); assay: Agonist activity at recombinant human pFA-CMV fused RXRalpha LBD transfected in HEK293T cells assessed as RXRalpha activation at 1 uM incubated for 12 to 14 hrs by dual glo luciferase reporter gene assay; assay type: cell-based
T2 sequence (whole entry): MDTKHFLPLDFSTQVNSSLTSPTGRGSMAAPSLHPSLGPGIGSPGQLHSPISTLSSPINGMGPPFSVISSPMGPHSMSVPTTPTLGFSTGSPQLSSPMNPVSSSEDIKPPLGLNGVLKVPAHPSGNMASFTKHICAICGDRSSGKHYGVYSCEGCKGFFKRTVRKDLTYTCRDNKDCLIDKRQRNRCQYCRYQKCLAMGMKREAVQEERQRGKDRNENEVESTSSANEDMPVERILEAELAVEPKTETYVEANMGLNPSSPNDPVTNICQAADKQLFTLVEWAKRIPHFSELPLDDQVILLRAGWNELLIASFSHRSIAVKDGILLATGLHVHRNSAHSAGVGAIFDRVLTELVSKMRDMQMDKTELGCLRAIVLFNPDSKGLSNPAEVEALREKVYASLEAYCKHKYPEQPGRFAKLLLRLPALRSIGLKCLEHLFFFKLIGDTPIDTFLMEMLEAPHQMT

[3] = Tmax in Swiss CD1 mouse at 10 mg/kg, ip measured upto 7 hrs by LC-MS analysis; assay type: ADME, organism-based; conditions: in vivo
[4] = molecular target: T1, Vitamin D3 receptor (Homo sapiens); assay: Agonist activity at recombinant human pFA-CMV fused VDR LBD transfected in HEK293T cells assessed as VDR activation at 1 uM incubated for 12 to 14 hrs by dual glo luciferase reporter gene assay; assay type: cell-based
[5] = molecular target: T3, Retinoic acid receptor alpha (Homo sapiens) (UniProt P10276); assay: Agonist activity at recombinant human pFA-CMV fused RARalpha LBD transfected in HEK293T cells assessed as RARalpha activation at 1 uM incubated for 12 to 14 hrs by dual glo luciferase reporter gene assay; assay type: cell-based
T3 sequence (whole entry): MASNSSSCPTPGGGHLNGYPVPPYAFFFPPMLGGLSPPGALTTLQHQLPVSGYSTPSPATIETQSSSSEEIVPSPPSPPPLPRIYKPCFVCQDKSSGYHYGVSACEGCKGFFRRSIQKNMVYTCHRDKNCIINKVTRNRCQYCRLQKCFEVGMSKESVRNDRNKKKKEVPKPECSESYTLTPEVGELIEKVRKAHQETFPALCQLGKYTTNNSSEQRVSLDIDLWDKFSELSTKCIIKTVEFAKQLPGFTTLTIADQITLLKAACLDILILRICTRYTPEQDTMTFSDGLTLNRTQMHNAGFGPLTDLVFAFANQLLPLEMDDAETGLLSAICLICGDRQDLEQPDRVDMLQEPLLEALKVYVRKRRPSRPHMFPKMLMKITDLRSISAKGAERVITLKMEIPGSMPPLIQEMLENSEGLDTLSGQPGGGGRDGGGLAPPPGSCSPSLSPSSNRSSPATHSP

[6] = Metabolic stability in Sprague-Dawley rat liver microsomes assessed as remaining compound at […] incubated for 60 mins; assay type: ADME, Microsome; conditions: read-out: Stability
[7] = AUC (0 to 4 hrs) in Swiss CD1 mouse at 10 mg/kg, ip measured upto 4 hrs by LC-MS analysis; assay type: ADME, organism-based; set-up: time < 4 hr, dose 10 mg/kg, route intraperitoneal; conditions: in vivo
[8] = Metabolic stability in Sprague-Dawley rat liver microsomes assessed as half life at […] incubated for 60 mins; assay type: ADME, Microsome
[9] = molecular target: T4, Peroxisome proliferator-activated receptor gamma (Homo sapiens, UniProt P37231); assay: Antagonist actvity in sGFP-tagged PPARgamma LBD (unknown origin) assessed as inhibition of rosiglitazone-induced PPARgamma activation incubated for 1 hr in presence of CBP-1 cofactor peptide by HTRF based cofactor recruitment assay
T4 sequence (P37231 whole entry): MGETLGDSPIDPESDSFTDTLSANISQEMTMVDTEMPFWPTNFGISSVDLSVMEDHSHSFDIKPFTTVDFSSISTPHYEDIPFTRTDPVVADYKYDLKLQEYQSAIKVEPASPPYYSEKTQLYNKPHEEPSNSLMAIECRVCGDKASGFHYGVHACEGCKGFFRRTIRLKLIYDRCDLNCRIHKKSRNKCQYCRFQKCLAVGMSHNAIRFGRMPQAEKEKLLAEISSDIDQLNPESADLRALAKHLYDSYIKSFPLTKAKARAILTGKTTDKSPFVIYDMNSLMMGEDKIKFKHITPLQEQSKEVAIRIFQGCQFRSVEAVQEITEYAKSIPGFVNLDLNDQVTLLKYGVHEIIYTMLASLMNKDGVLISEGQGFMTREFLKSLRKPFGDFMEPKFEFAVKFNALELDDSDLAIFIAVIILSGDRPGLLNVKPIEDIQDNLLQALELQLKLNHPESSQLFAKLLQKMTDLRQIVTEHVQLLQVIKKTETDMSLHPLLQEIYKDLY

Row | Compound | Activity [1] | Activity [2] | Tmax [3] | Activity [4] | Activity [5] | remaining at 1 h [6] | AUC(0-t) at 4 h [7] | half-life [8] | IC50 [9]
1 | CCC/C(=C\c1cc(OCc2ccc3nc(C(F)(F)F)cc(OC)c3c2)ccc1OCCN1CCN(C)CC1)C(=O)O | inactive | inactive | 0.25 h | inactive | inactive | 81% | 598 ng·h/mL | > 1 h | 6.4 µM
2 | CCC/C(=C\c1cc(OCc2ccc3nc(C(F)(F)F)cc(OC)c3c2)ccc1OCC1CCN(C)CC1)C(=O)O | inactive | inactive | 2 h | inactive | inactive | 95% | 650 ng·h/mL | > 1 h | –

Reference: ChEMBL document CHEMBL4364346, “Structure optimization of a new class of PPARγ antagonists” (Bioorg Med Chem, 2019)
